Results on 13 compounds are retold here after US20120258961A1, “4-AMINO-1,3-THIAZINE OR OXAZINE DERIVATIVE” (SHIONOGI & CO., LTD., priority 2009, published 2012).

Data set [1] deals with Neuroblastoma SH-SY5Y cells (SH/APPwt) with human wild-type β-APP excessively expressed. As to the kind of experiment: Measurement of β-amyloid (Aβ) production inhibitory effect in cell. The following applies: 24 hours, Amyloid β 1-40 HTRF in culture supernatant, read-out: Test example 2 IC50 (amount needed to inhibit Aβ production by 50%). It counts as cell-based. The method, then: Neuroblastoma SH-SY5Y cells (SH/APPwt) with human wild-type β-APP excessively expressed therein were prepared at 8×10^5 cells/mL, and 150 μl portions thereof were inoculated into each well of a 96-well culture plate (Falcon). The cells were cultured for 2 hours at 37° C. in a 5% gaseous carbon dioxide incubator. Then, a solution which had been preliminarily prepared by adding and suspending the test compound (DMSO (dimethyl sulfoxide) solution) so as to be 2 μl/50 μl medium was added to the cell sap. Namely, the final DMSO concentration was 1%, and the amount of the cell culture was 200 μl. After the incubation was performed for 24 hours from the addition of the test compound, 100 μl of the culture supernatant was collected from each fraction. The amount of the Aβ in each fraction was measured.
The Aβ amount was measured as follows. 10 μl of a homogeneous time resolved fluorescence (HTRF) measurement reagent (Amyloid β 1-40 peptide; IBA Molecular Holding, S.A.) and 10 μl of the culture supernatant were put into a 384-well half area microplate (black microplate, Costar) and mixed with each other, and then left standing overnight at 4° C. while the light was shielded. Then, the fluorescence intensity (excitation wavelength: 337 nm, measurement wavelength: 620 nm and 665 nm) was measured with a Wallac 1420 multilabel counter (Perkin Elmer life sciences). The Aβ amount was determined from the count rate at each measurement wavelength (10000×Count 665/Count 620), and the amount needed to inhibit Aβ production by 50% (IC50) was calculated from at least six different dosages.
Background: In TR-FRET formats the signal depends on donor and acceptor labels being close together.

For data set [2], the target named is T1, Recombinant human BACE1 (Homo sapiens, UniProt P56817).
T1 construct: purchased R&D Systems
As to the kind of experiment: Assay of BACE1 inhibiting activity. It is filed as biochemical. The settings on record: Recombinant human BACE1 7.4 nmol/L, substrate peptide 18 nmol/L, pH 5.0, 30° C., 3 hours; read-out: Test example 1 IC50 (BACE1 inhibiting activity). As for the experimental part: 48.5 μL of substrate peptide solution (Biotin-XSEVNLDAEFRHDSGC-Eu: X=ε-amino-n-capronic acid, Eu=Europium cryptate) was added to each well of 96-hole half-area plate (a black plate: Costar), and after addition of 0.5 μl of the test compound (dissolved in […]) and 1 μl of Recombinant human BACE1 (R&D Systems), the reaction mixture was incubated at 30° C. for 3 hours. The substrate peptide was synthesized by reacting Cryptate TBPCOOH mono SMP (CIS bio international) with Biotin-XSEVNLDAEFRHDSGC (Peptide Institute, Inc.). The final concentrations of the substrate peptide and Recombinant human BACE1 were adjusted to 18 nmol/L and 7.4 nmol/L, respectively, and the reaction was performed in sodium acetate buffer (50 mmol/L sodium acetate, pH 5.0, 0.008% Triton X-100). After the incubation for reaction, 50 μl of 8.0 μg/ml Streptavidin-XL665 (CIS bio international) dissolved in phosphate buffer (150 mmol/L K2HPO4—KH2PO4, pH 7.0, 0.008% Triton X-100, 0.8 mol/L KF) was added to each well and left stand at 30° C. for an hour. After then, fluorescence intensity was measured (excitation wavelength: 320 nm, measuring wavelength: 620 nm and 665 nm) using Wallac 1420 multilabel counter (Perkin Elmer life sciences). Enzymatic activity was determined from counting ratio of each wavelength (10,000×Count 665/Count 620) and 50% inhibitory concentration (IC50) against the enzymatic activity was calculated.

Data set [3] can be described thus: Metabolism stability test. It is filed as in vitro ADME. The following applies: human liver microsomes 0.5 mg protein/mL, 1 mmol/L NADPH, 37° C., 30 minutes. The method, then: Using a commercially available pooled human hepatic microsomes, a test compound was reacted for a constant time, a remaining rate was calculated by comparing a reacted sample and an unreacted sample, thereby, a degree of metabolism in liver was assessed.
A reaction was performed (oxidative reaction) at 37° C. for 0 minute or 30 minutes in the presence of 1 mmol/L NADPH in 0.2 mL of a buffer (50 mmol/L Tris-HCl pH 7.4, 150 mmol/L potassium chloride, 10 mmol/L magnesium chloride) containing 0.5 mg protein/mL of human liver microsomes. After the reaction, 50 μL of the reaction solution was added to 100 μL of a methanol/acetonitrile=1/1 (v/v), mixed and centrifuged at 3000 rpm for 15 minutes. The test compound in the supernatant was quantified by LC/MS/MS, and a remaining amount of the test compound after the reaction was calculated, letting a compound amount at 0 minute reaction time to be 100%.

Data set [4] relates to CYP1A2, CYP2C9, CYP2C19, CYP2D6, CYP3A4. As to the kind of experiment: in vitro. The settings on record: human, microsomes.
Text: Using commercially available pooled human hepatic microsome, and employing, as markers, O-deethylation of 7-ethoxyresorufin (CYP1A2), methyl-hydroxylation of tolbutamide (CYP2C9), 4′-hydroxylation of mephenyloin (CYP2C19), O-demethylation of dextromethorphan (CYP2D6) and hydroxylation of terfenadine (CYP3A4) as typical substrate metabolism reactions of human main five CYP enzyme forms (CYP1A2, 2C9, 2C19, 2D6, 3A4), an inhibitory degree of each metabolite production amount by a test compound was assessed. […]
Each five kinds of substrates, human hepatic microsome, and a test drug in 50 mmol/L Hepes buffer as a reaction solution was added to a 96-well plate at the composition as described above, NADPH, as a cofactor was added to initiate metabolism reactions as markers and, after the incubation at 37° C. for 15 minutes, a methanol/acetonitrile=1/1 (v/v) solution was added to stop the reaction. After the centrifugation at 3000 rpm for 15 minutes, resorufin (CYP1A2 metabolite) in the supernatant was quantified by a fluorescent multilabel counter and tributamide hydroxide (CYP2CP metabolite), mephenyloin 4′ hydroxide (CYP2C19 metabolite), dextromethorphan (CYP2D6 metabolite), and terfenadine alcohol (CYP3A4 metabolite) were quantified by LC/MS/MS. […]
The nature of data set [5]: Brain distribution studies. It counts as in vivo. The settings on record: rat, intravenous 0.5 mg/mL/kg, 30 minutes later, read-out: Brain Kp value (area ratio brain/plasma). The method, then: Intravenous administration is carried out to a rat by 0.5 mg/mL/kg dosage of a text compound. […] Then, the brain was extracted and 20-25% of homogenate thereof was prepared with distilled water. On the other hand, the obtained blood is used as plasma after centrifuging. Then, to the brain sample was added the control plasma at 1:1. To the plasma samples was added the control brains at 1:1. Each sample was measured using LC/MS/MS. The obtained area ratio (a brain/plasma) was used for the brain Kp value.

Data set [6] in a line: BA test (oral absorption). It is filed as in vivo. The following applies: plasma; from AUCs of oral and intravenous administration groups, mouse or rats. As for the experimental part:
Materials and Methods for studies on oral absorption
(1) Animal: Mouse or Rats
(2) Breeding conditions: mouse or rats were allowed to freely take solid feed and sterilized tap water. (3) Dose and grouping: orally or intravenously administered at a predetermined dose; grouping was as follows (Dose depends on the compound) Oral administration: 1 to 30 mg/kg (n=2 to 3) Intravenous administration: 0.5 to 10 mg/kg (n=2 to 3) (4) Preparation of dosing solution: for oral administration, in a solution or a suspension state; for intravenous administration, in a solubilized state (5) Administration method: in oral administration, forcedly administer into ventriculus with oral probe; in intravenous administration, administer from caudal vein with a needle-equipped syringe (6) Evaluation items: blood was collected over time, and the plasma concentration of drug was measured by LC/MS/MS (7) Statistical analysis: regarding the transition of the plasma concentration, the area under the plasma concentration-time curve (AUC) was calculated by non-linear least squares program WinNonlin (Registered trade name), and the bioavailability (BA) was calculated from the AUCs of the oral administration group and intravenous administration group

A short description of data set [7]: Solubility test (Test Example 7(1)). It is filed as physicochemical. The settings on record: aqueous buffer, kinetic from dmso stock; medium (JP-I, JP-II), 2% DMSO solution, after 4 hours; read-out: Solubility assessed by 3 stages from turbidity. The method, then: A 2-fold dilution series (12 points) of a 10 mM solution of a test compound in DMSO was added to a medium (JP-I, JP-II) (2%), and solubility was assessed by 3 stages (High; >40 μM, Medium; 3-40 μM, Low; <3 μM) from a turbidity after 4 hours (crystallization information).

Data set [8] deals with T2, CYP3A4 enzyme expressed in Escherichia coli (Homo sapiens, UniProt P08684).
T2 construct: host or cells: Escherichia coli
The data set is described as follows: CYP3A4 fluorescent MBI test. It counts as in vitro ADME. The settings on record: substrate 7-BFC. As for the experimental part: The CYP3A4 fluorescent MBI test is a test of investigating enhancement of CYP3A4 inhibition of a compound by a metabolism reaction, and the test was performed using, as CYP3A4 enzyme expressed in Escherichia coli and employing, as an index, a reaction in which 7-benzyloxytrifluoromethylchmarin (7-BFC) is debenzylated by the CYP3A4 enzyme to produce a metabolite, 7-hydroxytrifluoromethylchmarin (HFC) emitting fluorescent light.
The reaction conditions were as follows: substrate, 5.6 μmol/L 7-BFC; pre-reaction time, 0 or […]; reaction time, 15 minutes; reaction temperature, 25° C. […]
An enzyme in a K-Pi buffer (pH 7.4) and a test drug solution as a pre-reaction solution were added to a 96-well plate at the composition of the pre-reaction, a part of it was transferred to another 96-well plate so that it was 1/10 diluted by a substrate in a K-Pi buffer, NADPH as a co-factor was added to initiate a reaction as an index (without preincubation) and, after a predetermined time of a reaction, acetonitrile/0.5 mol/L Tris(trishydroxyaminomethane)=4/1 was added to stop the reaction. […] For the plate on which each index reaction had been performed, a fluorescent value of 7-HFC which is a metabolite was measured with a fluorescent plate reader. […]

T1 sequence (P56817 46-501): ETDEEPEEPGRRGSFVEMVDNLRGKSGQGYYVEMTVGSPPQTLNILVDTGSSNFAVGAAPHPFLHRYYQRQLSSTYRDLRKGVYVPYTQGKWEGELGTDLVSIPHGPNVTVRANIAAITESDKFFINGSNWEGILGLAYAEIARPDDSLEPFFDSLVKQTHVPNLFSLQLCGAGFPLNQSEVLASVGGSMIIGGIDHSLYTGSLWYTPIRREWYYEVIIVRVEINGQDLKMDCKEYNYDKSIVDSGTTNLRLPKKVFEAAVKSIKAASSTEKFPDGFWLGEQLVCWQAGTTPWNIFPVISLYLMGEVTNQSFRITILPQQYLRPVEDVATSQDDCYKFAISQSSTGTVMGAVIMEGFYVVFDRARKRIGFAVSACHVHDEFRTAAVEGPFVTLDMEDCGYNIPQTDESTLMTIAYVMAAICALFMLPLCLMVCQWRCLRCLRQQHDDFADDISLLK
T2 sequence (P08684 whole entry): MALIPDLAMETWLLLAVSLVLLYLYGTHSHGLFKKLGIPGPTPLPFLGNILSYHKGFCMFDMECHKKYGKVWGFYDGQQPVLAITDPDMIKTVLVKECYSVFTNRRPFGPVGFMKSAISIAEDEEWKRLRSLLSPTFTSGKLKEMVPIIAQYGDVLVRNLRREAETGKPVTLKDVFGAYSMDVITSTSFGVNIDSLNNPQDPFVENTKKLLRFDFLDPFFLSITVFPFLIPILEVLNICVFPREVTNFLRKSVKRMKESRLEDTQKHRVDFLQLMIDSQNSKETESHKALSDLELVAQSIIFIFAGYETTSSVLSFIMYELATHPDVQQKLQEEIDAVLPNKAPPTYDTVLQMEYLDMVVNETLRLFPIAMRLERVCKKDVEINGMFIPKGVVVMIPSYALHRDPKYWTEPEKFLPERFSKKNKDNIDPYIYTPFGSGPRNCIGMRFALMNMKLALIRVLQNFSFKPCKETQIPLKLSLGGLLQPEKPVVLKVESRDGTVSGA

Take `CC1(c2cc(NC(=O)c3ccc(C#N)cn3)ccc2F)N=C(N)c2ccccc2S1` (stereo not shown) [Compound I-3]: the IC50 in data set [1] was at most 1000 nM.
For the compound `CC1(c2cc(NC(=O)c3ccc(C#N)cn3)ccc2F)N=C(N)c2ccc(F)cc2O1` (stereo not shown) [Compound I-12], the half-inhibitory concentration (IC50) is 61 nM in data set [2] and 15 nM in data set [1].
As to `COc1cnc(C(=O)Nc2ccc(F)c(C3(C)N=C(N)c4ccccc4S3)c2)cn1` (stereo not shown) [Compound I-8], the IC50 in data set [2] turned out to be 66 nM; in data set [1] it was 19 nM.
For the compound `CC1(c2cc(NC(=O)c3ncc(Cl)cc3Cl)ccc2F)N=C(N)CCS1` (stereo not shown) [Compound I-2], the concentration for half-maximal inhibition (IC50) in data set [2] is 10 nM; in data set [1], under 1 nM.
With `Cc1cnc(C(=O)Nc2ccc(F)c(C3(C)N=C(N)CCS3(=O)=O)c2)cn1` (stereo not shown) [Compound I-19], the IC50 in data set [1] was at most 1000 nM. Also, the “Remaining amount of the test compound after the reaction (metabolism stability)” value in data set [3] is 97%. In addition, the 50% inhibitory concentration (IC50) at 15 min in data set [4] is over 17000 nM.
As to `CC1(c2cc(NC(=O)c3ccc(C#N)cn3)ccc2F)N=C(N)c2cc(F)ccc2O1` (stereo not shown) [Compound I-11], the Kp at 0.5 h in data set [5] was 5.8. The IC50 in data set [1] is at most 1000 nM.
In the case of `CC1(c2cc(NC(=O)c3ccc(C#N)cn3)ccc2F)N=C(N)c2ccc(N)cc2O1` (stereo not shown) [Compound I-10], the IC50 in data set [1] was at most 1000 nM.
As for `CC1(c2cc(NC(=O)c3ccc(C#N)cn3)ccc2F)N=C(N)c2cc(Cl)ccc2O1` (stereo not shown) [Compound I-5], the concentration for half-maximal inhibition (IC50) in data set [1] was at most 1000 nM.
Compound `Cc1cnc(C(=O)Nc2ccc(F)c(C3(C)N=C(N)CCS3)c2)cn1` (stereo not shown) [Compound I-1] yielded a bioavailability in data set [6] of 93.4%. In data set [1], the 50% inhibitory concentration (IC50) was at most 1000 nM.
In the case of `CC1(c2cc(NC(=O)c3ccc(C#N)cn3)ccc2F)N=C(N)c2cc(N)ccc2O1` (stereo not shown) [Compound I-9], the solubility at 4 h in data set [7] was over 40 µM. Further, the half-inhibitory concentration (IC50) in data set [1] was at most 1000 nM.
With `CC1(c2cc(NC(=O)c3ccc(C#N)cn3)ccc2F)N=C(N)CCS1` (stereo not shown) [Compound I-6], in data set [1], the 50% inhibitory concentration (IC50) is at most 1000 nM.
For the compound `CC1(c2cc(NC(=O)c3ccc(C#N)cn3)ccc2F)N=C(N)c2ccccc2O1` (stereo not shown) [Compound I-4], the IC50 in data set [1] is at most 1000 nM. Besides, the “CYP3A4 fluorescent MBI: difference between IC50 values without and with preincubation” value in data set [8] is “(−) (when the difference is 3 μM or less, this was defined as (−))”.
For `Cc1cnc(C(=O)Nc2ccc(F)c(C3(C)N=C(N)c4ccccc4S3)c2)cn1` (stereo not shown) [Compound I-7], the IC50 in data set [1] was at most 1000 nM.

One may read the IC50 as the concentration needed to halve the response being measured. The bioavailability is dose-corrected exposure relative to a reference, in per cent. A high value points to good availability. In general, solubility refers to the concentration that dissolves in the medium under given conditions.
